Reference: patent publication US20240252516A1, “COMBINATION BPH THERAPY WITH FEXAPOTIDE TRIFLUTATE, A 5-ARI, AND AN ALPHA BLOCKER” (Nymox Corporation, priority 2023, published 2024)
Ends that are not written are not given here.

Tests used:
BPH patients = settings: CombAT trial, after 2 years; cited from earlier work
patients with BPH = assay: Clinical trial in men with BPH: International Prostate Symptom Score (IPSS) change from baseline; type: in vivo, human; settings: oral medication together with placebo PBS injection, >2 years after treatment
Method: Clinical trials were conducted on numerous individuals having BPH. All protocols were done in accordance with applicable regulations, and carried out by physicians.
In a study of 978 men, patients with BPH were first administered a course of antibiotics for a period of 2-4 weeks, and then given an intraprostatic injection of either a) 10 ml of FT in phosphate buffered saline (concentration of 0.25 mg/ml), pH 7.2 (“PBS”) or b) PBS alone, under double-blind conditions by a urologist in an office setting under ultrasound guidance. Each patient was followed for a number of years with regular physical examinations, laboratory tests, and evaluations of symptoms. Symptomatic evaluation was measured by the International Prostate Symptom Score (IPSS) which is a quantitative scale used to gauge prostatic symptomatic improvement or worsening. The IPSS quantifies the following: 1) incomplete bladder emptying after urination; 2) frequent urination; 3) stopping and starting during urination; 4) urgent need to urinate; 5) weakness of urinary stream; 6) need to push or strain during urination; 7) need to urinate after going to sleep at night (nocturia). […]
Using the results from the above tables, the average mean IPSS improvement of the respective medications, or combinations of medications can be determined, as well as the percent improvement in mean IPSS when compared to the average of the actives. […]

[1] = test system: prostate glandular epithelial cells; assay: Tissue culture genetic array, in vitro pathway activation; type: cell-based
Description: FT is a new molecular entity which in vitro stimulates caspase pathways (activation of caspases 7, 8, and 10, caspase recruitment domains 6, 11, and 14, and DIABLO), tumor necrosis factor pathways (activation of TNF1, TNFSF6, TNFSF8, TNFSF9, CD70 ligands, and TNFRSF19L, TNFRSF25, TRAF2, TRAF3, TRAF4, TRAF6 receptors), and BCL pathways (activation of BIK, HRK, BCL2L10 and BCL3) in prostate glandular epithelial cells, based on tissue culture genetic array data. FT selectively causes loss of cell membrane integrity, mitochondrial metabolic arrest, depletion of RNA, DNA lysis and aggregation, and cell fragmentation and cell loss. The apoptotic process leads to typical ultrastructural progressive changes of membranous disruption and swelling, progressively deepening nuclear invaginations with eventual membranous bleb formations and cell death and fragmentation into apoptotic bodies. Histologically, typical apoptotic changes with positive immunohistochemical staining of markers for apoptosis are found throughout the injected areas for up to several weeks after treatment.

[2] = test system: benign prostatic hyperplasia; settings: McConnell et al.; cited from earlier work
5α-reductase = settings: blood; cited from earlier work
[3] = test system: α1- than α2-adrenergic receptors; settings: α1 versus α2 selectivity; cited from earlier work

CCOc1ccccc1OCCN[C@H](C)Cc1ccc(OC)c(S(N)(=O)=O)c1 [tamsulosin, (R)-5-(2-{[2-(2-Ethoxyphenoxy)ethyl]amino}propyl)-2-methoxybenzene-1-sulfonamide]
mean decrease in IPSS from baseline (BPH patients): 4.3

CN1CC(=O)N2[C@H](c3ccc4c(c3)OCO4)c3[nH]c4ccccc4c3C[C@@H]2C1=O [PDE5 Inhibitor, tadalafil]
Mean IPSS Improvement, oral meds alone (patients with BPH): 4.67

Ile-Asp-Gln-Gln-Val-Leu-Ser-Arg-lle-Lys-Leu-Glu-lle-Lys-Arg-Cys-Leu (IDQQVLSRIKLEIKRCL; also: trifluoroacetate salt) [FT, 1: …]
BCL pathways (BIK, HRK, BCL2L10, BCL3) [1]: stimulates | caspase pathways (caspases 7, 8, 10, caspase recruitment domains 6, 11, 14, DIABLO) [1]: stimulates | tumor necrosis factor pathways (TNF1, TNFSF6, TNFSF8, TNFSF9, CD70 ligands, TNFRSF19L, TNFRSF25, TRAF2, TRAF3, TRAF4, TRAF6 receptors) [1]: stimulates

CC(C)(C)NC(=O)[C@H]1CC[C@H]2[C@@H]3CC[C@H]4NC(=O)C=C[C@]4(C)[C@H]3CC[C@]12C [finasteride]
long term (4 year) mean IPSS improvement [2]: 5.6 | reduction in circulating DHT levels (5α-reductase): 65 to 70%

COc1cc2nc(N3CCN(C(=O)C4COc5ccccc5O4)CC3)nc(N)c2cc1OC (centres unmarked) [doxazosin, 1-(4-amino-6,7-dimethoxy-2-quinazolinyl)-4-[(2,3-dihydro-1,4-benzodioxin-2-yl)carbonyl]piperazine]
long term (4 year) mean IPSS improvement [2]: 6.6

C[C@]12C=CC(=O)N[C@@H]1CC[C@@H]1[C@@H]2CC[C@]2(C)[C@@H](C(=O)Nc3cc(C(F)(F)F)ccc3C(F)(F)F)CC[C@@H]12 [dutasteride, 17β-N-(2,5-bis(Trifluoromethyl))phenylcarbamoyl-4-aza-5α-androst-1-en-3-one]
mean decrease in IPSS from baseline (BPH patients): 4.9 | reduction in circulating DHT levels (5α-reductase): up to 98%

Cc1ccc(N(CC2=NCCN2)c2cccc(O)c2)cc1 [phentolamine]
potency in inhibiting α1- than α2-adrenergic receptors [3]: three to five times more potent
